Reference: US20170369523A1, “TEMPLATE-FIXED BETA-HAIRPIN PEPTIDOMIMETICS THAT ARE LIGANDS FOR G-PROTEIN-COUPLED RECEPTORS (GPCRS) AND ARE MODULATORS OF TRANSCRIPTION FACTORS AND COACTIVATORS” (POLYPHOR AG, priority 2008, published 2017)
Read-outs that look alike come from different tables or passages of the source. Bridge positions count the residues as written; N and C are the ends. Square brackets hold non-standard residues; d marks the D form. Peptide text beside a SMILES is read from it. Cha = N[C@@H](CC1CCCCC1)C(=O)O; Orn = NCCC[C@H](N)C(=O)O

T1: human UTR2 receptor (Homo sapiens, UniProt Q9UKP6)
T1 construct: expressed in transfected cells; host or cells: mouse pre-B cell line 300-19
T1 sequence (Q9UKP6 1-389): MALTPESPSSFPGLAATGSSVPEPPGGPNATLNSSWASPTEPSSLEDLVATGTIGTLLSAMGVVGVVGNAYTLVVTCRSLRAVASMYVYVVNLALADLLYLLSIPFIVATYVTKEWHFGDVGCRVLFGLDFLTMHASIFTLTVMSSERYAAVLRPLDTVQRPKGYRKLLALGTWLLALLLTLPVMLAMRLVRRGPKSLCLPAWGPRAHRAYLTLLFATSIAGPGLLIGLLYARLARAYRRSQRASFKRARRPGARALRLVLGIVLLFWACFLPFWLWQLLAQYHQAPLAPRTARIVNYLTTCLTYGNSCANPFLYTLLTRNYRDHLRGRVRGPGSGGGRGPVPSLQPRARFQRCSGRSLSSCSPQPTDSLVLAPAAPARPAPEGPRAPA

T2: human UTR2 receptor (human, UniProt Q9UKP6 1-389)
T2 sequence (looked up): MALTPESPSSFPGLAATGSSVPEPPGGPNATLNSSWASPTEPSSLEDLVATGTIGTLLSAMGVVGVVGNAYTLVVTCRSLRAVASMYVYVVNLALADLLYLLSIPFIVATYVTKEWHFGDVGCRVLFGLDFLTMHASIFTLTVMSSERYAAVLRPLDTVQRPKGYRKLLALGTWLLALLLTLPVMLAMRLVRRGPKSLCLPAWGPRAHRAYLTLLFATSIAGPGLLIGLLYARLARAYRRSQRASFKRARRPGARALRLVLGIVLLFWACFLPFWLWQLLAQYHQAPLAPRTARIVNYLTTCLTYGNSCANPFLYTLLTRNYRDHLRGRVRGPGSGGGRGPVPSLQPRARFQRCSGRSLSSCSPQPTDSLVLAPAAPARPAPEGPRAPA


How the values were obtained:
[1] = Plasma stability, mouse plasma; type: in vitro ADME; conditions: 37° C., sampled up to 240 min
Experimental: (§1) The stability of the peptides in human and mouse plasma was determined by applying the following method: 315 μl/deep well of freshly thawed human plasma (Basler Blutspende-dienst) and mouse plasma (Harlan Sera-Lab, UK), respectively, were spiked with 35 μl/well of compound in PBS (100 μM, triplicate) and incubated at 37° C. At t=0, 15, 30, 60, 120 and 240 min aliquots of 50 μl were transferred to filtration plate wells containing 150 μl/well of acetonitrile. Following shaking for 2 min the occurred suspensions were filtrated by vacuum and finally. 100 μl of each filtrate were transferred to a propylene microtiter plate, and analyzed by LC/MS as follows: Column: Waters, XBridge C18, mobile phases: (A) water+0.1% formic acid and (B) acetonitrile/water, 95/5 (v/v)+0.1% formic acid, gradient: 5%-100% (B) in 2 minutes, electrospray ionization, MRM detection (triple quadrupole). The peak areas were determined and triplicate values were averaged. The stability was expressed in percent of the initial value at t=0. (tx/t0×100). By using the TREND function of EXCEL (Microsoft Office 2003) T1/2 were determined.

[2] = tested on: human red blood cells (hRBC); type: cell-based; conditions: red cells of human, 1 h
Experimental: The peptides were tested for their hemolytic activity against human red blood cells (hRBC). Fresh hRBC were washed three times with phosphate buffered saline (PBS) and centrifuged for 10 min at 2000×g. Compounds (100 μM) were incubated with 20% hRBC (v/v) for 1 h at 37° C. The final erythrocyte concentration was approximately 0.9×10^9 cells/mL. A value of 0% and 100% cell lyses, respectively, was determined by incubation of hRBC in the presence of PBS alone and 0.1% Triton X-100 in H2O, respectively. The samples were centrifuged, the supernatants were 20-fold diluted in PBS buffer and the optical densities (OD) were measured at 540 nm. The 100% lyses value (OD540H2O) gave an OD540 of approximately 1.3-1.8. Percent hemolysis was calculated as follows: […]

human UTR2 receptor [3] = target: T1, human UTR2 receptor; test: Ca2+ assay: UTR2 receptor-agonizing and antagonizing activity (calcium mobilization, Flexstation); type: cell-based
Source text: 2.3. Ca^2+− Assay: UTR2 Receptor-Agonizing and Antagonizing Activity of the Peptides
The mouse pre-B cell line 300-19 was stably transfected with the cDNA encoding the human UTR2 receptor (GenBank Acc# NM_018949), and expression was confirmed with a positive calcium signal in response to human urotensin (Sigma Aldrich). Increases in intracellular calcium were monitored using a Flexstation 384 (Molecular Devices, Sunnyvale, Calif.). The cells were batch loaded with the Calcium 4 Assay kit (Molecular Devices) in assay buffer (Hanks Balanced salt solution, HBSS, 20 mM HEPES, pH 7.4, 0.1% BSA) for 1 h at room temperature and labeled cells were dispensed into either black 96 well or 384 well assay plates (Greiner). Calcium mobilization induced by urotensin or test compounds was measured in the Flexstation 384 (excitation, 485 nm; emission, 525 nm) for 70 seconds. Agonist activity was determined by direct addition of ligand or peptides, while antagonists were identified by spiking the cells with test compounds prior to urotensin addition. A dose response curve (compound concentration versus % maximum response for urotensin) was determined for each active agonist and antagonist and was fitted to a four parameter logistic equation using SoftmaxPro 4.8 (Molecular Devices), from which EC50% and IC50% values were calculated.

[4] = Plasma stability, human plasma; type: in vitro ADME; conditions: 37° C., sampled up to 240 min
Experimental: as §1

in vitro [5] = type: cell-based; conditions: for GI50 at 48 h: human
Experimental: (§2) The cytotoxicity of the peptides to HELA cells (Acc57) and COS-7 cells (CRL-1651) was determined using the MTT reduction assay. Briefly, the method was as follows: 7000 HELA cells/well and 4500 COS-7 cells/well were seeded and grown in 96-well microtiter plates for 24 h at 37° C. at 5% CO2. Thereafter, time zero (Tz) was determined by MTT reduction (see below). The supernatant of the remaining wells was discarded, and fresh medium and compounds in serial dilutions (12.5, 25 and 50 μM, triplicates) were pipetted into the wells. After incubation of the cells for 48 h at 37° C. at 5% CO2 the supernatant was discarded again and 100 μL MTT reagent (0.5 mg/mL in RPMI1640 and DMEM, respectively)/well was added. Following incubation at 37° C. for 2 h the media were aspirated and the cells were spiked (100 μl isopropanol/well). The absorbance of the solubilized formazan was measured at 595 nm (OD595peptide). For each concentration averages were calculated from triplicates. The percentage of growth was calculated as follows: (OD595peptide-OD595Tz-OD595Empty well)/(OD595Tz-OD595Empty well)×100%. The GI50 (Growth Inhibition) concentrations were calculated for each peptide by using a trend line function for the concentrations (50, 25, 12.5 and 0 μM), the corresponding percentages and the value 50, (=TREND (C50:C0,%50:%0,50).

in vitro [6] = type: cell-based; conditions: for GI50 at 48 h: African green monkey
Experimental: as §2

human UTR2 receptor [7] = target: T2, human UTR2 receptor; test: cell-based or functional assay

| Molecule | Plasmastability mouse pl. T1/2 [1] [h] | Hemolysis at 100 μM [%] [2] [%] | EC50 (human UTR2 receptor [3]) [µM] | Plasmastability human pl. T1/2 [4] [h] | GI50 (in vitro [5]) [µM] | GI50 (in vitro [6]) [µM] | GI50 at 48 h (in vitro [5]) [µM] | GI50 at 48 h (in vitro [6]) [µM] | EC50% (Ca2+ assay, agonist activity) (human UTR2 receptor [7]) [µM] |
| --- | --- | --- | --- | --- | --- | --- | --- | --- | --- |
| CC(C)C[C@@H]1NC(=O)[C@@H]2CSSC[C@H](NC(=O)[C@H](CC(=O)O)NC(=O)[C@@H]3CCCN3C(=O)[C@@H](CCC(=O)O)NC1=O)C(=O)N[C@@H](Cc1ccccc1)C(=O)N[C@@H](Cc1c[nH]c3ccccc13)C(=O)N[C@@H](CCCCN)C(=O)N[C@@H](Cc1ccc(O)cc1)C(=O)N2 [compound 30] | 4 | 0 | < 0.002 | 4 | > 50 | > 50 |  |  |  |
| CC(C)[C@@H]1NC(=O)[C@@H]2CSSC[C@H](NC(=O)[C@H](CC(=O)O)NC(=O)[C@@H]3CCCN3C(=O)[C@H]3CCCN3C1=O)C(=O)N[C@@H](Cc1ccccc1)C(=O)N[C@H](Cc1c[nH]c3ccccc13)C(=O)N[C@@H](CCCN)C(=O)N[C@@H](Cc1ccc(O)cc1)C(=O)N2 [compound 32] (cyclo(DCF[dW][Orn]YCV[dP]P); disulfide 2-7) | 4 | 0 |  | 4 |  |  | > 50 | > 50 |  |
| CC(C)C[C@@H]1NC(=O)[C@@H]2CSSC[C@H](NC(=O)[C@H](CC(=O)O)NC(=O)[C@@H]3CCCN3C(=O)[C@@H](CO)NC1=O)C(=O)N[C@@H](Cc1ccccc1)C(=O)N[C@@H](Cc1c[nH]c3ccccc13)C(=O)N[C@@H](CCCCN)C(=O)N[C@@H](Cc1ccc(O)cc1)C(=O)N2 [Ex. 28] | 4 | 0 | < 0.002 | 4 | > 50 | > 50 |  |  |  |
| CC(C)[C@@H]1NC(=O)[C@@H]2CSSC[C@H](NC(=O)[C@H](CC(=O)O)NC(=O)[C@@H]3CCCN3C(=O)[C@H]3CCCN3C1=O)C(=O)N[C@@H](Cc1ccccc1)C(=O)N[C@@H](Cc1c[nH]c3ccccc13)C(=O)N[C@@H](CCCCN)C(=O)N[C@@H](Cc1ccc(O)cc1)C(=O)N2 [compound 31] | 4 | 0 | < 0.002 | 4 | > 50 | > 50 |  |  |  |
| CC(C)C[C@@H]1NC(=O)[C@@H]2CSSC[C@H](NC(=O)[C@H](CC(=O)O)NC(=O)[C@@H]3CCCN3C(=O)[C@H]3CCCN3C1=O)C(=O)N[C@@H](Cc1ccc(O)cc1)C(=O)N[C@@H](Cc1c[nH]c3ccccc13)C(=O)N[C@@H](CCCCN)C(=O)N[C@@H](Cc1ccc(O)cc1)C(=O)N2 [compound 33] | 4 | 0 | < 0.002 | 4 | > 50 | > 50 |  |  |  |
| NCCCC[C@@H]1NC(=O)[C@H](Cc2c[nH]c3ccccc23)NC(=O)[C@H](Cc2ccccc2)NC(=O)[C@@H]2CSSC[C@H](NC(=O)[C@H](Cc3ccc(O)cc3)NC1=O)C(=O)N[C@@H](CC1CCCCC1)C(=O)N1CCC[C@@H]1C(=O)N1CCC[C@H]1C(=O)N[C@@H](CC(=O)O)C(=O)N2 [compound 35] (cyclo(DCFWKYC[Cha][dP]P); disulfide 2-7) | 4 | 0 |  | 4 |  |  | > 50 | > 50 |  |
| CC(C)[C@@H]1NC(=O)[C@@H]2CSSC[C@H](NC(=O)[C@H](CC(=O)O)NC(=O)[C@@H]3CCCN3C(=O)[C@H]3CCCN3C1=O)C(=O)N[C@@H](Cc1ccccc1)C(=O)N[C@H](Cc1c[nH]c3ccccc13)C(=O)N[C@@H](CCCCN)C(=O)N[C@@H](Cc1ccc(O)cc1)C(=O)N2 [compound 34] | 4 | 0 | < 0.002 | 4 | > 50 | > 50 |  |  |  |
| cyclo(DCFWKYCV[dP]P) (disulfide 2-7) [Ex. 31] |  |  |  |  |  |  |  |  | < 0.002 |
| cyclo(DCYWKYCL[dP]P) (disulfide 2-7; SMILES CC(C)C[C@@H]1NC(=O)[C@@H]2CSSC[C@H](NC(=O)[C@H](CC(=O)O)NC(=O)[C@@H]3CCCN3C(=O)[C@H]3CCCN3C1=O)C(=O)N[C@@H](Cc1ccc(O)cc1)C(=O)N[C@@H](Cc1c[nH]c3ccccc13)C(=O)N[C@@H](CCCCN)C(=O)N[C@@H](Cc1ccc(O)cc1)C(=O)N2) [Ex. 33] |  |  |  |  |  |  |  |  | < 0.002 |
| cyclo(DCFWKYCL[dS]P) (disulfide 2-7; SMILES CC(C)C[C@@H]1NC(=O)[C@@H]2CSSC[C@H](NC(=O)[C@H](CC(=O)O)NC(=O)[C@@H]3CCCN3C(=O)[C@@H](CO)NC1=O)C(=O)N[C@@H](Cc1ccccc1)C(=O)N[C@@H](Cc1c[nH]c3ccccc13)C(=O)N[C@@H](CCCCN)C(=O)N[C@@H](Cc1ccc(O)cc1)C(=O)N2) [Ex. 28] |  |  |  |  |  |  |  |  | < 0.002 |
| cyclo(DCF[dW]KYCV[dP]P) (disulfide 2-7) [Ex. 34] |  |  |  |  |  |  |  |  | < 0.002 |
| cyclo(DCFWKYCL[dE]P) (disulfide 2-7; SMILES CC(C)C[C@@H]1NC(=O)[C@@H]2CSSC[C@H](NC(=O)[C@H](CC(=O)O)NC(=O)[C@@H]3CCCN3C(=O)[C@@H](CCC(=O)O)NC1=O)C(=O)N[C@@H](Cc1ccccc1)C(=O)N[C@@H](Cc1c[nH]c3ccccc13)C(=O)N[C@@H](CCCCN)C(=O)N[C@@H](Cc1ccc(O)cc1)C(=O)N2) [Ex. 30] |  |  |  |  |  |  |  |  | < 0.002 |
